Data: patent publication US6172110A, “Acylated betulin and dihydrobetulin derivatives, preparation thereof and use thereof” (The University of North Carolina at Chapel Hill, priority 1999, dated 2001)
Entries after “also recorded” stand apart in the source; their conditions may differ. Where two headings read alike, the source gives them in different places.

How the values were obtained:
[1] = system: HIV-1; details: H9 lymphocyte cells, Fujioka et al. 1994, cited from earlier work
[2] = system: HIV-1 (IIIB isolate); assay: HIV-1 inhibition (p24 antigen ELISA) in infected H9 lymphocytes; format: cell-based; details: for EC50: Human immunodeficiency virus 1, IIIB, Lymphocyte, 96 h, read-out: Anti-HIV Activity EC50; for Therapeutic Index (TI = IC50/EC50): H9 cells; for anti-HIV activity, result in words: EC50 compared with related compounds
Experimental: (§1) Aliquot of this cell line were only used in experiments when in log-phase growth. Test samples were first dissolved in dimethyl sulfoxide. The following final drug concentrations were routinely used for screening: 100, 20, 4 and 0.8 μg/ml. For active agents, additional dilutions were prepared for subsequent testing so that an accurate EC50 value (defined below) could be achieved. […] The appropriate amount of virus for a multiplicity of infection (moi) between 0.1 and 0.01 Infectious Units/cell was added to the first aliquot of H9 cells. The other aliquot only received culture medium, and these mock-infected cells were used for toxicity determinations (IC50, defined below). After a 4 h incubation at 37° C. and 5% CO2, both cell populations were washed three times with fresh medium and then added to the appropriate wells of a 24 well-plate containing the various concentrations of the test drug or culture medium (positive infected control/negative drug control). In addition, AZT was also assayed during each experiment as a positive drug control. The plates were incubated at 37° C. and 5% CO2 for 4 days. Cell-free supernatants were collected on Day 4 for use in a p24 antigen ELISA assay. P24 antigen is a core protein of HIV and therefore is an indirect measure of virus present in the supernatants. Toxicity was determined by performing cell counts by a Coulter Counter on the mock-infected H9 cells which had either received culture medium (no toxicity), test sample, or AZT.
Compounds of the present invention were assayed for anti-HIV activity according to the following assay procedures. […] The cell lines were used in experiments only when in the logarithmic phase of growth, whereas uninfected peripheral blood mononuclear cells (PBMCs) were first stimulated with PHA (1 μg/mL) for three days. […] The cell lines and PBMCs were washed thoroughly to remove unadsorbed virions and resuspended at 4×10^5 cells/ml in complete medium or complete medium with 10% v/v interleukin 2 (IL-2) , respectively. One ml. aliquots were placed into wells of 24-well culture plates containing an equal volume of test compounds (diluted in the appropriate culture medium). The toxicity of each compound was assessed by determining the number of compound-exposed uninfected cells that remained after four days at 37° C. and 5% CO2. A p24 antigen ELISA assay was used to determine the level of virus released in the medium of the HIV-infected cultures. The p24 antigen assay used a HIV-1 anti-p24 specific monoclonal antibody as the capture antibody coated onto 96-well plates. […] P24 in the culture medium was quantitated against a standard curve containing known amounts of p24. The effective (EC50) and inhibitory (IC50) concentrations for anti-HIV activity and cytotoxicity, respectively, were determined.

[3] = Cytotoxicity: cell counts of mock-infected H9 cells; format: cell-based; details: human
Experimental: as §1, with “The biological evaluation of HIV-1 inhibition was carried out according to established protocols, (Kashiwada, Y., et al., J Med Chem. 39:1016-1017 (1996); Hashimoto, F., et al., Bioorg. & Med Chem. 5:2133-2143 (1997)). The T cell line, H9, was maintained in continuous culture with complete medium (RPMI 1640 with 10% fetal calf serum supplemented with L-glutamine at 5% CO2 and 37° C.). Aliquot” for “Aliquot”, “achieved. As the test samples were being prepared, an aliquot of the H9 cell line was infected with HIV-1 (IIIB isolate) while another aliquot was mock-infected with complete medium.” for “achieved.”
Compounds of the present invention were assayed for anti-HIV activity according to the following assay procedures. The T cell line, H9, and the promonocytic cell line, U937, were maintained separately in continuous culture with complete medium (RPMI 1640 with 10% fetal calf serum) at 5% CO2 and 37° C. The cell lines were used in experiments only when in the logarithmic phase of growth, whereas uninfected peripheral blood mononuclear cells (PBMCs) were first stimulated with PHA (1 μg/mL) for three days. All cell targets were incubated with HIV-1 (IIIB isolate, TCID50 10^4 IU/ml, at a multiplicity of infection of […] IU/cell) for one hour at 37° C. and 5% CO2. The cell lines and PBMCs were washed thoroughly to remove unadsorbed virions and resuspended at 4×10^5 cells/ml in complete medium or complete medium with 10% v/v interleukin 2 (IL-2) , respectively. One ml. aliquots were placed into wells of 24-well culture plates containing an equal volume of test compounds (diluted in the appropriate culture medium). The toxicity of each compound was assessed by determining the number of compound-exposed uninfected cells that remained after four days at 37° C. and 5% CO2. A p24 antigen ELISA assay was used to determine the level of virus released in the medium of the HIV-infected cultures. The p24 antigen assay used a HIV-1 anti-p24 specific monoclonal antibody as the capture antibody coated onto 96-well plates. Following a sample incubation period, rabbit serum containing antibodies for HIV-1 p24 was used to tag any p24 captured onto the microtiterwell surface. Peroxidase conjugated goat anti-rabbit serum was then used to tag HIV-1 p24 specific rabbit antibodies that had complexed with captured p24. […] The cutoff for the p24 ELISA assay was 12.5 pg/ml. P24 in the culture medium was quantitated against a standard curve containing known amounts of p24. […]

[4] = read-out: EC50, inhibitory activity against HIV-1 replication
[5] = average of at least two experiments

Structure (SMILES) | Therapeutic Index (TI = IC50/EC50) [2, 5] | anti-HIV activity, result in words ([2]; H-9 lymphocytes) | EC50 [2] | CC50 at 96 h ([3]; h9 cells) | other results
CC(C)[C@@H]1CC[C@]2(C(=O)O)CC[C@]3(C)[C@H](CC[C@@H]4[C@@]5(C)CC[C@H](O)C(C)(C)[C@@H]5CC[C@]43C)[C@@H]12 [dihydrobetulinic acid] | – | – | – | – | T.I. [1]: 14; EC50 ([1]; read-out: EC50, anti-HIV activity (unit inferred)): 0.9 µM
C=C(C)[C@@H]1CC[C@]2(C(=O)O)CC[C@]3(C)[C@H](CC[C@@H]4[C@@]5(C)CC[C@H](O)C(C)(C)[C@@H]5CC[C@]43C)[C@@H]12 [Compound 1, betulinic acid, reference compound] | – | – | – | – | EC50 ([2]; H9 lymphocytes, p24 ELISA Day 4, average of at least two experiments): 1.4 µM; CC50 at 96 h ([3]; toxic to 50% of mock-infected H9 cells, 4 days, average of at least two experiments, read-out: Cytotoxicity IC50): 13 µM; EC50 [1, 4]: 1.4 µM
C=C(C)[C@@H]1CC[C@]2(COC(=O)CC(C)(C)CC(=O)O)CC[C@]3(C)[C@H](CC[C@@H]4[C@@]5(C)CC[C@H](O)C(C)(C)[C@@H]5CC[C@]43C)[C@@H]12 [Compound 11, 28-O-(3',3'-Dimethylglutaryl)-betulin] | 7.8 | much less potent than 4 | 3.6 µM | 28.2 µM | fold more potent than compound 3 ([2]; compared with compound 3 (betulin)): 6 fold
CCC(C)(CC(=O)O)CC(=O)OC[C@]12CC[C@@H](C(C)C)[C@@H]1[C@H]1CC[C@@H]3[C@@]4(C)CC[C@H](OC(=O)CC(C)(CC)CC(=O)O)C(C)(C)[C@@H]4CC[C@@]3(C)[C@]1(C)CC2 (some centres unmarked) [Compound 9, 3,28-Di-O-(3',3'-methylethylglutaryl)-dihydrobetulin] | 248 | less inhibition than the unsaturated 5 and 6 | 0.075 µM | 18.7 µM | –
CC(C)[C@@H]1CC[C@]2(COC(=O)CC3(CC(=O)O)CCCC3)CC[C@]3(C)[C@H](CC[C@@H]4[C@@]5(C)CC[C@H](OC(=O)CC6(CC(=O)O)CCCC6)C(C)(C)[C@@H]5CC[C@]43C)[C@@H]12 [Compound 10, 3,28-Di-O-(3',3'-tetramethyleneglutaryl)-dihydrobetulin] | 37 | less inhibition than the unsaturated 5 and 6; also recorded: least activity | 0.58 µM | 21.6 µM | TI, result in words ([2]; H-9 lymphocytes, compared with related compounds): lowest TI values
CC(=O)[C@@H]1CC[C@]2(C(=O)O)CC[C@]3(C)[C@H](CC[C@@H]4[C@@]5(C)CC[C@H](O)C(C)(C)[C@@H]5CC[C@]43C)[C@@H]12 [platanic acid] | – | – | – | – | T.I. [1]: 14; EC50 [1, 4]: 6.5 µM
C=C(C)[C@@H]1CC[C@]2(C(=O)O)CC[C@]3(C)[C@H](CC[C@@H]4[C@@]5(C)CC[C@H](OC(=O)CC(C)(C)CC(=O)O)C(C)(C)[C@@H]5CC[C@]43C)[C@@H]12 [Compound 2, reference compound] | – | – | 0.0023 µM | 4.5 µM | –
